16 compounds from PubChem BioAssay (NCI) can be followed below.

Common to all, as to experiment: NCI tumour cell line growth inhibition, 48 h
Experiment [1] concerns SNB-75 CNS.
The test system of experiment [2] is A549 NSCLC.
In experiment [3] the test system is HCT-116 colon.
Experiment [4] relates to OVCAR-3 ovarian.
The subject of experiment [5] is NCI-H226 lung.
In experiment [6] the test system is NCI-H460 lung.
In experiment [7] the test system is SW-620 colon.
Experiment [8] has as its system RXF 393 renal.
The subject of experiment [9] is OVCAR-8 ovarian.
Experiment [10] deals with DU-145 prostate.
In experiment [11] the test system is NCI-H23 lung.
Experiment [12] concerns SNB-19 CNS.
Experiment [13] relates to HL-60(TB) leukemia.
Experiment [14] has as its system NCI/ADR-RES ovarian.
The subject of experiment [15] is CCRF-CEM leukemia.
For experiment [16], the system named is MDA-MB-435.
Experiment [17] concerns MCF7 breast.
Experiment [18] deals with SK-MEL-5 melanoma.
The test system of experiment [19] is A498 renal.
Experiment [20] relates to MALME-3M melanoma.

Structures are written as SMILES.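 Interpolation was linear, between the two tested concentrations surrounding the appropriate level; five concentrations were tested over 48 hours in 96-well plates. At the TGI there is no net growth.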

Consider `COc1ccc(/C=C2/CCS(=O)(=O)c3ccc(C)cc3C2=O)cc1OC`, for which the TGI was 57.2 µM in experiment [1]; greater than 100 µM in experiment [2]; 21.8 µM in experiment [3]; greater than 100 µM in experiment [4]; 70.8 µM in [5]; 25.8 µM in experiment [6]. In addition, the TGI in experiment [7] is greater than 100 µM; in [8], 29.6 µM; in experiment [9], 48.1 µM; in experiment [10], 15.1 µM; in experiment [11] it was 27.3 µM; in experiment [12] it was 33.3 µM. The TGI in experiment [13] is 51.5 µM; in experiment [14], 46.5 µM; in [15] it was 69.8 µM; in experiment [16], 71.6 µM; in [17] it was greater than 100 µM.
Turning to `COc1ccc(CNC(=O)[C@H](Cc2ccc(O)cn2)NC(C)=O)cc1`, the TGI in experiment [2], in experiment [3], in experiment [4], in experiment [5], in experiment [6] and in experiment [7] was greater than 100 µM in each case. Moreover, the TGI in [18], in experiment [8], in experiment [10], in [11], in experiment [12] and in [19] was greater than 100 µM in each case. For the same compound, the TGI in experiment [13], in experiment [14], in experiment [15], in experiment [16] and in experiment [17] was greater than 100 µM each time.
On to `C[N+](C)([O-])Cc1cc(-c2ccccc2)ccc1O`, for which the TGI in [1], in [2], in experiment [3], in experiment [4], in experiment [5] and in experiment [6] was greater than 100 µM throughout. The TGI in [7], in experiment [18], in experiment [8], in [10], in [11] and in experiment [12] was greater than 100 µM throughout. Further, the TGI in experiment [19], in [14], in [16] and in experiment [20] was greater than 100 µM each time.
On to `CCN(CC)C(=S)SS(=O)(=O)c1ccccc1[N+](=O)[O-]`, for which the TGI in [1] is greater than 100 µM; in [2], greater than 100 µM; in experiment [3], greater than 59.1 µM; in experiment [4], 68 µM; in experiment [5], greater than 93.8 µM; in experiment [6], greater than 100 µM. Further, the TGI in [7] was greater than 53.7 µM; in experiment [18], 24.8 µM; in experiment [8], 45.4 µM; in [9], greater than 56.9 µM; in experiment [10], greater than 66.5 µM; in experiment [11] it was 99 µM. The TGI in [12] is greater than 92.8 µM; in [19], greater than 100 µM; in experiment [13], greater than 44.8 µM; in [14], 97.5 µM; in experiment [15] it was greater than 100 µM; in experiment [16], 53.9 µM. In experiment [20], this compound yielded a TGI of 22.2 µM.
Turning to `CCOC(=O)N1[C@@H]2CCC[C@@H]2C(=O)[C@@H]2CCC[C@@H]21`, the TGI in experiment [1], in experiment [2], in experiment [3], in [4], in [5] and in experiment [6] was greater than 100 µM in each case. Besides, the TGI in experiment [7], in experiment [18], in experiment [8], in experiment [9], in experiment [10] and in experiment [11] was greater than 100 µM throughout. For the same compound, the TGI in experiment [12], in experiment [19], in experiment [13], in [14], in experiment [15] and in [16] was greater than 100 µM in each case.
For `COC(=O)C1C(C(=O)OC)C1(Br)CBr` (stereo not drawn), the TGI in experiment [1], in experiment [2], in [3], in experiment [4], in experiment [5] and in experiment [6] was greater than 100 µM each time. The TGI in experiment [7] was greater than 100 µM; in experiment [18], greater than 100 µM; in [8], 41.6 µM; in [9], greater than 100 µM; in experiment [10], greater than 100 µM; in experiment [11], greater than 100 µM. The TGI in experiment [12], in [19], in experiment [13], in experiment [14], in [16] and in experiment [17] was greater than 100 µM throughout.
In the case of `CC(=O)Oc1c2oc3cc(O)c(O)cc3c2c(OC(C)=O)c2oc3cc(O)c(O)cc3c12`, the TGI is 57.6 µM in [1]; greater than 100 µM in experiment [2]; 38.2 µM in experiment [3]; 39.2 µM in experiment [5]; 32.7 µM in experiment [6]; greater than 100 µM in experiment [7]. Also, the TGI is 38.3 µM in [18]; 32.6 µM in [8]; 50.2 µM in experiment [9]; 7.38 µM in experiment [11]; 94.2 µM in experiment [12]; 13 µM in experiment [13]. Besides, the TGI in [14] was 86.7 µM; in experiment [15] it was greater than 100 µM; in [16] it was 3.81 µM; in experiment [20], greater than 100 µM.
Turning to `O=C(O)c1nccnc1C(=O)O`, the TGI in [1], in experiment [2], in experiment [3], in [5], in [6] and in experiment [7] was greater than 100 µM in each case. Besides, the TGI in experiment [18], in experiment [8], in [11], in experiment [12], in experiment [13] and in experiment [15] was greater than 100 µM each time. This compound also came in with a TGI in experiment [20] greater than 100 µM.
With `[O-][n+]1c(-c2ccccc2)c2nc3ccccc3nc2c2ccccc21`, the TGI in experiment [1] was 99 µM; in experiment [2] it was greater than 100 µM; in experiment [3], greater than 100 µM; in experiment [4], greater than 100 µM; in experiment [5] it was greater than 100 µM; in experiment [6], greater than 100 µM. Also, the TGI in [7], in experiment [18], in experiment [8], in [9], in experiment [11] and in [12] was greater than 100 µM throughout. For the same compound, the TGI in experiment [19], in experiment [15] and in experiment [20] was greater than 100 µM each time.
`O=C(/C=C/c1ccc(O)c(O)c1)NCCc1ccc(-c2ccccc2)cc1`: the TGI in experiment [1] was greater than 100 µM; in [2] it was greater than 100 µM; in [3] it was greater than 100 µM; in experiment [4], 65.7 µM; in [6], greater than 100 µM; in experiment [7] it was greater than 100 µM. In addition, the TGI in experiment [18], in experiment [8], in experiment [9], in [10], in [11] and in experiment [12] was greater than 100 µM in each case. For the same compound, the TGI in [19] was greater than 100 µM; in [13], greater than 100 µM; in [14], greater than 100 µM; in [15] it was greater than 100 µM; in experiment [20] it was 53.9 µM; in experiment [17] it was greater than 100 µM.
For the compound `CN(C)c1ccc(C2ON=C(c3ccccc3)N2C23CC4CC(CC(C4)C2)C3)cc1` (stereo not drawn), the TGI in experiment [1], in [2], in experiment [3], in [4], in experiment [5] and in experiment [6] was greater than 10 µM throughout. The TGI in [7], in [18], in experiment [8], in [9], in experiment [10] and in experiment [11] was greater than 10 µM in each case. Also, the TGI in experiment [12], in experiment [19], in experiment [13], in experiment [14], in [15] and in experiment [16] was greater than 10 µM throughout. In experiment [20], the TGI was greater than 10 µM.
In the case of `OC(c1ccccc1)C(F)(F)c1nc2ccccc2o1` (stereo not drawn), the TGI in experiment [1], in experiment [3], in experiment [5], in experiment [6], in experiment [7] and in experiment [18] was greater than 100 µM in each case. The TGI in experiment [8], in [9], in experiment [10], in experiment [11], in experiment [12] and in experiment [19] was greater than 100 µM throughout. Also, the TGI in experiment [13], in [14], in [15], in [16] and in [17] was greater than 100 µM each time.
Take `CC(C)(C)NC(=O)C12C3C4C1C1C2C3C41C(=O)NC(C)(C)C` (stereo not drawn): the TGI in experiment [2], in [3], in [4], in [6], in [7] and in [18] was greater than 100 µM in each case. Moreover, the TGI in experiment [8], in [9], in experiment [10], in experiment [11], in [12] and in [19] was greater than 100 µM in each case. In addition, the TGI in experiment [13], in experiment [14], in experiment [15], in [16] and in experiment [17] was greater than 100 µM throughout.
As to `O=C(Nn1cnn2c(=O)c3ccccc3nc2c1=O)c1ccccc1`, the TGI in experiment [1], in experiment [2], in experiment [3], in experiment [4], in experiment [5] and in experiment [6] was greater than 100 µM each time. The TGI in [7], in experiment [18], in [9], in [10], in experiment [11] and in experiment [12] was greater than 100 µM throughout. Also, the TGI in experiment [19], in experiment [13], in experiment [15], in experiment [16], in [20] and in experiment [17] was greater than 100 µM in each case.
For `CC(=O)O[C@@H]1O[Si](C(C)(C)C)(C(C)(C)C)[C@H](C)[C@H]1C`, the TGI in experiment [1], in experiment [2], in [3], in experiment [4], in [5] and in [7] was greater than 100 µM throughout. For the same compound, the TGI in experiment [18] is greater than 100 µM; in experiment [9], greater than 100 µM; in [11], greater than 100 µM; in experiment [12], greater than 100 µM; in experiment [19] it was greater than 100 µM; in [13], 44 µM. The TGI was greater than 100 µM in experiment [14]; greater than 100 µM in experiment [15]; greater than 100 µM in experiment [16]; 90.1 µM in [20]; 83 µM in [17].
`CCOC(=O)c1[nH]c2nc(SC)nc(Nc3ccccc3Cl)c2c1N`: the TGI in experiment [1] was 38.4 µM; in experiment [2], 44.8 µM; in [3], greater than 100 µM; in experiment [4] it was 75.4 µM; in experiment [5] it was 70.2 µM; in experiment [6], 41.1 µM. For the same compound, the TGI was greater than 100 µM in [7]; 32.7 µM in experiment [18]; 30.2 µM in [8]; 36.5 µM in experiment [9]; 95.7 µM in experiment [10]; 60.5 µM in experiment [11]. Besides, the TGI in experiment [12] was 44.5 µM; in [19], 55.9 µM; in [14], 73.3 µM; in experiment [15] it was 46.8 µM; in experiment [16], greater than 100 µM; in experiment [20] it was 67 µM.
